Measured values as given in publication PMC9375929, “Functional and structural characteristics of HLA-B*13:01-mediated specific T cells reaction in dapsone-induced drug hypersensitivity” (Journal of Biomedical Science, 2022).
pKd: −log10 of the molar value.

Target: T1, HLA-B*13:01 (with beta-2-microglobulin) (Homo sapiens, UniProt A0A583ZBB4)
T1 construct: for SPR incubated with beta-2-microglobulin (Chemicon) and amine-coupled; no peptide ligand mentioned for SPR; with Beta-2-microglobulin
Assay: surface plasmon resonance (Biacore T200), protein immobilised by amine coupling
Type: binding

SMILES: Nc1ccc(S(=O)(=O)c2ccc(N)cc2)cc1 [DDS]
- pKd: 4.16
